Assays:
[1] = system: sterol biosynthesis system (rat liver slices); assay: Effects on sterol biosynthesis in rat liver slices ([1-14C] acetic acid incorporation); format: cell-based, male Wistar rat; conditions: 37° C., 2 hours, radioactivity of sterol fraction vs control
Description: (§1) Effects on sterol and fatty acid biosynthesis systems obtained from a rat liver slices
(§2) Pharmacological tests were carried out according to the procedure mentioned below, referring to the following document: Endo, A., Tsujita, Y., Kuroda, M. and Tanzawa, K., Eur. J. Biochem., 77, 31-36 (1977).
(§3) The liver was extirpated from a male Wistar rat (body weight: about 200 g) immediately after sacrifice by decapitation, and sufficiently perfused with ice-cold Krebs-Ringer bicarbonate buffer solution. The liver slices (100 mg) were added to 1 ml of Krebs-Ringer bicarbonate buffer solution containing [1-^14 C] acetic acid (2 μci/μmol) and one of test compounds adjusted to various concentrations, and the reaction was carried out at 37° C. for 2 hours in 95% O2 -5% CO2 gas mixture. After cooling the reaction mixture, 2 ml of petroleum ether was added thereto to extract the sterol fraction with shaking. The extract was concentrated and 1 ml of 1% digitonin solution was added thereto. After standing, the mixture was centrifuged. The sterol fraction obtained as the sediment was washed several times with an organic solvent and dissolved in 1 ml of acetic acid. Subsequently, radioactivity of the sterol fraction was measured. Then the concentration of the test compound (IC50) was determined at which the radioactivity was inhibited by 50% compared with the radioactivity observed in the control group wherein the test compounds were not used.

[2] = system: fatty acid biosynthesis system (rat liver slices); assay: Effects on fatty acid biosynthesis in rat liver slices ([1-14C] acetic acid incorporation); format: cell-based, male Wistar rat; conditions: 37° C., 2 hours, radioactivity of fatty acid fraction vs control
Description: as §1, §2, §3
In a similar manner, the radioactivity of fatty acid fraction was determined which was obtained by treating, with hydrochloric acid, the lower layer of the petroleum ether mentioned in the above procedure.

[3] = system: serum lipid (triglyceride and cholesterol); assay: Rate of decrease in serum lipid (triglyceride and cholesterol) in rats after 14-day oral administration; format: in vivo, male Sprague-Dawley rats; conditions: 300 mg/kg orally everyday for 14 days; 24 hours after last administration; vs control group (0.5% HPMC)
Description: Male Sprague-Dawley rats (body weight: about 130 g) were preliminarily bred for one week, and divided into groups, each group consisting of five rats. Each of the test compounds was suspended in a 0.5% hydroxy-propylmethylcellulose (HPMC) aqueous solution, and the suspensions were orally administered to the rats at a dose of 300 mg/kg at 9:00 a.m. everyday for 14 days. […] The blood was allowed to stand and centrifuged to obtain serum. Lipid (triglyceride and cholesterol) in the obtained serum was measured by the enzymic method using an autoanalyzer.
Pharmacological activities of the test compounds were determined as the rate of decrease (%) in serum lipid compared with the control group to which only 0.5% aqueous HPMC solution was administered.

Row | Compound | IC50 [1] | IC50 [2] | Rate of decrease in total cholesterol in serum [3] | Rate of decrease in triglyceride in serum [3]
1 | COc1ccc(N2CC(COc3ccc(C=O)cc3)OC2=O)cc1 (stereo not drawn) [Compound 1, 4-[3-(4-methoxyphenyl)-2-oxooxazolidin-5-yl]methoxybenzaldehyde] | 10.2 µM | 5.6 µM | – | –
2 | Cc1ccc(N2CC(COc3ccc(C(=O)O)cc3)OC2=O)cc1 (stereo not drawn) [Compound 83] | 5.74 µM | 2.89 µM | – | –
3 | O=C(O)c1ccc(OCC2CN(c3ccc(Cl)cc3Cl)C(=O)O2)cc1 (stereo not drawn) [Compound 98] | – | – | 26.8% | 65.5%
4 | O=C(O)c1ccc(OCC2CN(c3ccc(Br)cc3F)C(=O)O2)cc1 (stereo not drawn) [Compound 100] | – | – | 32.4% | 62.9%
5 | O=C(O)c1ccc(OCC2CN(c3ccc(C(F)(F)F)cc3)C(=O)O2)cc1 (stereo not drawn) [Compound 101] | 4.8 µM | 3.17 µM | – | –
6 | O=C(O)c1ccc(OCC2CN(c3ccc(OC(F)(F)F)cc3)C(=O)O2)cc1 (stereo not drawn) [Compound 108] | – | – | 50.4% | 83.0%
7 | Cc1ccc(CN2CC(COc3ccc(C(=O)O)cc3)OC2=O)cc1 (stereo not drawn) [Compound 130] | 29.5 µM | 14.8 µM | – | –
8 | O=C(O)c1ccc(OC[C@H]2CN(c3ccc(Cl)cc3)C(=O)O2)cc1 [Compound 149] | 3.36 µM | 1.99 µM | – | –
9 | O=C(O)c1ccc(OC[C@@H]2CN(c3ccc(Cl)cc3)C(=O)O2)cc1 [Compound 165] | 1.15 µM | 1.09 µM | – | –
10 | Cc1ccc(N2CC(COc3ccc(CO)cc3)OC2=O)cc1 (stereo not drawn) [Compound 175, 4-[3-(4-tolyl)-2-oxooxazolidin-5-yl]methoxybenzyl alcohol] | 4.8 µM | 2.7 µM | – | –
11 | O=C(O)c1ccc(OCC2COC(=O)N2c2ccccc2)cc1 (stereo not drawn) [Compound 180, 4-(3-phenyl-2-oxooxazolidin-4-yl)methoxybenzoic acid] | 7.1 µM | 33.7 µM | – | –
12 | O=C(O)CCc1ccc(OCC2CN(c3ccc(Cl)cc3)C(=O)O2)cc1 (stereo not drawn) [Compound 193] | 16.4 µM | 3.8 µM | – | –
13 | O=C1OC(COc2ccc(CCCO)cc2)CN1c1ccc(Cl)cc1 (stereo not drawn) [Compound 194, 3-{4-[3-(4-chlorophenyl)-2-oxooxazolidin-5-yl]methoxyphenyl}propyl alcohol] | 4.8 µM | 4 µM | – | –
14 | O=C1OC(COc2ccc(CCCO)cc2)CN1c1ccccc1 (stereo not drawn) [Compound 195, 3-[4-(3-phenyl-2-oxooxazolidin-5-yl)methoxyphenyl]propyl alcohol] | 23.2 µM | 7.3 µM | – | –

Further compounds by falling IC50 [1], results first:

Row | IC50 [1] | IC50 [2] | Compound | Rate of decrease in total cholesterol in serum [3] | Rate of decrease in triglyceride in serum [3]
15 | 34.5 µM | 9.81 µM | O=C(O)c1ccc(OCC2CN(c3ccccc3)C(=S)O2)cc1 (stereo not drawn) [Compound 171, 4-(3-phenyl-2-oxazolidinethion-5-yl)methoxybenzoic acid] | – | –
16 | 17.4 µM | 5.7 µM | O=C(O)/C=C/c1ccc(OCC2CN(c3ccc(Cl)cc3)C(=O)O2)cc1 (stereo not drawn) [Compound 183] | – | –
17 | 8.08 µM | 4.78 µM | O=C(O)c1ccc(OC[C@H]2CN(c3ccc(C(F)(F)F)cc3)C(=O)O2)cc1 [Compound 147] | – | –
18 | 6.4 µM | 2.9 µM | O=Cc1ccc(OCC2CN(c3ccc(Br)cc3F)C(=O)O2)cc1 (stereo not drawn) [Compound 8] | – | –
19 | 3.79 µM | 1.3 µM | O=C(O)c1ccc(OCC2CN(c3ccc([N+](=O)[O-])cc3)C(=O)O2)cc1 (stereo not drawn) [Compound 81, 4-[3-(4-nitrophenyl)-2-oxooxazolidin-5-yl]methoxybenzoic acid] | – | –
20 | 3.23 µM | 1.55 µM | O=C(O)c1ccc(OCC2CN(c3ccc(Br)cc3)C(=O)O2)cc1 (stereo not drawn) [Compound 93] | – | –
21 | 0.84 µM | 1.23 µM | COc1ccc(N2C[C@@H](COc3ccc(C(=O)O)cc3)OC2=O)cc1 [Compound 164] | – | –
